Values of other authors, collected in patent US20050020546A1, “Pharmaceutical compositions comprising active vitamin D compounds” (Novacea, Inc., priority 2003, published 2005).

Settings: compared with calcitriol

Row | Hypercalcemic effect | Structure (SMILES)
1 | reduced hypercalcemic effect | C=C1/C(=C\C=C2/CCC[C@]3(C)C([C@H](C)CC#CC(C)(C)O)=CC[C@@H]23)C[C@@H](O)C[C@@H]1O [Ro23-7553]
2 | reduced hypercalcemic effect | C=C1/C(=C/C=C2\CCC[C@]3(C)C([C@H](C)CC#CC(O)(C(F)(F)F)C(F)(F)F)=CC[C@@H]23)C[C@@H](O)C[C@@H]1O [Ro24-5531]
